pIC50: −log10 of the molar value.

Consider two molecules from BindingDB's records for doi:10.1021/jm2012062 (Universidade Federal De Santa Catarina, 2012).

The target of the test is T1, Low molecular weight protein-tyrosine phosphatase A (Mycobacterium tuberculosis (strain ATCC 25618 / H37Rv), UniProt P9WIA1).
T1 sequence (P9WIA1 whole entry): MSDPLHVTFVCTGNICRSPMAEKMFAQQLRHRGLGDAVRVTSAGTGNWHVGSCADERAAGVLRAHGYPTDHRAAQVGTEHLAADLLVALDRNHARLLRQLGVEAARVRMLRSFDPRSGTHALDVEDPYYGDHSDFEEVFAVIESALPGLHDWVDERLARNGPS
In words: Inhibition of Mycobacterium tuberculosis PTP-A.

A word on the pIC50: it is −log10 of the IC50, conventionally taken in molar units. A high value points to a small IC50. With `C=c1[nH]c(=Cc2[nH]c(-c3ccc[nH]3)cc2OC)cc1CCCCC` [PRODIGIOSIN], the pIC50 is 5.06. On to `COc1cc(-c2[nH]ccc2Cl)oc1C1=c2[nH]c3cc2[C@H](C(C)C)[C@H]1CCCCCCCC=3`, for which the negative logarithm of the IC50 (pIC50) is 5.06.
